Experiments:
[1] = pazopanib and lapatinib combination, daily; ref de Jonge et al, 2013; cited from earlier work
[2] = test system: CYP2C8; type: in vivo, human; conditions: increase in paclitaxel AUC and Cmax less than two-fold in the presence of pazopanib and lapatinib
[3] = Plasma pharmacokinetics of paclitaxel, pazopanib and lapatinib in cycle 1; type: in vivo, human; conditions: for half-life / AUC(0-inf) / Cmax / AUC(0-t): human, plasma; for AUC(0-t): Lapatinib AUC(0–24)
[4] = pazopanib in combination with paclitaxel; ref Tan et al, 2010; cited from earlier work
[5] = test system: CYP3A4; type: in vivo, human; conditions: increase in paclitaxel AUC and Cmax less than two-fold in the presence of pazopanib and lapatinib
[6] = day 15 of cycle 1, paclitaxel 50 mg m^−2, pazopanib 400 mg, lapatinib 1000 mg, n=6, geometric mean (95% confidence interval)
[7] = day 15 of cycle 1, paclitaxel 50 mg m^−2, pazopanib 800 mg, lapatinib 1000 mg, n=3, median (range)
[8] = day 15 of cycle 1, paclitaxel 80 mg m^−2, pazopanib 400 mg, lapatinib 1000 mg, n=9, geometric mean (95% confidence interval)
[9] = day 15 of cycle 1, paclitaxel 80 mg m^−2, pazopanib 800 mg, lapatinib 1000 mg, n=1, individual value
[10] = patients receiving pazopanib 400 mg, lapatinib 1000 mg

## 5-((4-((2,3-dimethyl-2H-indazol-6-yl)methylamino]-2-pyrimidinyl)amino)-2-methyl-benzenesulfonamide [pazopanib]
[1]
  Recommended phase II dosing: 800 mg
[2]
  Inhibition of CYP2C8 (classification): weak inhibitors
[3]; [6]
  Pazopanib AUC(0–24): 633 (279, 1436) μg*hr ml^−1
  Pazopanib Cmax: 31.7 (14.6, 68.8) μg ml^−1
[3]; [7]
  Pazopanib AUC(0–24): 960 (736, 1620) μg*hr ml^−1
  Pazopanib Cmax: 48.9 (40.7, 80.9) μg ml^−1
[3]; [8]
  Pazopanib AUC(0–24): 646 (432, 967) μg*hr ml^−1
  Pazopanib Cmax: 32 (21.9, 46.9) μg ml^−1
[3]; [9]
  Pazopanib AUC(0–24): 1027 µg·h/mL
  Pazopanib Cmax: 57.4 µg/mL
[3]; pazopanib 400–800 mg per day
  Change in mean AUC0–24 of pazopanib with a two-fold increase in pazopanib dose: less than two-fold increase
  Change in mean Cmax of pazopanib with a two-fold increase in pazopanib dose: less than two-fold increase

## CC(=O)O[C@H]1C(=O)[C@@]2(C)[C@H]([C@H](OC(=O)c3ccccc3)[C@]3(O)C[C@H](OC(=O)[C@H](O)[C@@H](NC(=O)c4ccccc4)c4ccccc4)C(C)=C1C3(C)C)[C@]1(OC(C)=O)CO[C@@H]1C[C@@H]2O [paclitaxel]
[4]
  Increase in Cmax of paclitaxel relative to paclitaxel alone: 36%
  Increase in geometric mean AUC of paclitaxel relative to paclitaxel alone: 26%
[3]; day 15, 50 mg m^−2 paclitaxel+400 mg pazopanib+1000 mg lapatinib, n=4, geometric mean (95% confidence interval)
  Paclitaxel CL: 16.3 (14.8, 17.9) l h^−1 m^−2
[3]; day 15, 50 mg m^−2 paclitaxel+800 mg pazopanib+1000 mg lapatinib, n=3, median (range)
  Paclitaxel CL: 16.3 (14.9, 20.3) l h^−1 m^−2
[3]; day 15, 80 mg m^−2 paclitaxel+400 mg pazopanib+1000 mg lapatinib (MTR), n=9, geometric mean (95% confidence interval)
  Paclitaxel CL: 15.3 (13.2, 17.8) l h^−1 m^−2
[3]; day 15, 80 mg m^−2 paclitaxel+800 mg pazopanib+1000 mg lapatinib, n=1, individual value
  Paclitaxel CL: 18.3 l h^−1 m^−2
[3]; intravenous
  half-life: 14.8 h
[3]; intravenous, 50 mg m^−2
  AUC(0-inf): 2.15 µg·h/mL
  Cmax: 1440 ng/mL
  half-life: 11.7 h
[3]; intravenous, 50 mg m^−2, Paclitaxel Cmax, day 1 (pazopanib and lapatinib withheld), 50 mg m^−2 paclitaxel+800 mg pazopanib+1000 mg lapatinib, n=3, median (range)
  Cmax: 1270 ng/mL
[3]; intravenous, 80 mg m^−2
  AUC(0-inf): 3.82 µg·h/mL
  Cmax: 2290 ng/mL
[3]; intravenous, 80 mg m^−2, Paclitaxel Cmax, day 1 (pazopanib and lapatinib withheld), 80 mg m^−2 paclitaxel+800 mg pazopanib+1000 mg lapatinib, n=3, median (range)
  Cmax: 3320 ng/mL
[3]; intravenous, Paclitaxel AUC(0-∞), day 15, 50 mg m^−2 paclitaxel+800 mg pazopanib+1000 mg lapatinib, n=3, median (range)
  AUC(0-inf): 3.06 µg·h/mL
[3]; intravenous, Paclitaxel AUC(0-∞), day 15, 80 mg m^−2 paclitaxel+400 mg pazopanib+1000 mg lapatinib (MTR), n=9, geometric mean (95% confidence interval)
  AUC(0-inf): 5.23 µg·h/mL
[3]; intravenous, Paclitaxel AUC(0–∞), day 15, 50 mg m^−2 paclitaxel+400 mg pazopanib+1000 mg lapatinib, n=4, geometric mean (95% confidence interval)
  AUC(0-inf): 3.07 µg·h/mL
[3]; intravenous, Paclitaxel AUC(0–∞), day 15, 80 mg m^−2 paclitaxel+800 mg pazopanib+1000 mg lapatinib, n=1, individual value
  AUC(0-inf): 4.37 µg·h/mL
[3]; intravenous, Paclitaxel Cmax, day 15, 50 mg m^−2 paclitaxel+400 mg pazopanib+1000 mg lapatinib, n=5, geometric mean (95% confidence interval)
  Cmax: 2330 ng/mL
[3]; intravenous, Paclitaxel Cmax, day 15, 50 mg m^−2 paclitaxel+800 mg pazopanib+1000 mg lapatinib, n=3, median (range)
  Cmax: 1720 ng/mL
[3]; intravenous, Paclitaxel Cmax, day 15, 80 mg m^−2 paclitaxel+800 mg pazopanib+1000 mg lapatinib, n=1, individual value
  Cmax: 2710 ng/mL

## CS(=O)(=O)CCNCc1ccc(-c2ccc3ncnc(Nc4ccc(OCc5cccc(F)c5)c(Cl)c4)c3c2)o1 [lapatinib]
[1]
  Recommended phase II dosing: 1500 mg
[2]
  Inhibition of CYP2C8 (classification): weak inhibitors
[5]
  Inhibition of CYP3A4 (classification): weak inhibitors
[3]; [8]
  Lapatinib Cmax: 1.95 (1.13, 3.37) μg ml^−1
[3]; oral, day 15 of cycle 1, paclitaxel 50 mg m^−2, pazopanib 400 mg, lapatinib 1000 mg, n=6, geometric mean (95% confidence interval)
  AUC(0-t): 20 µg·h/mL
[3]; oral, day 15 of cycle 1, paclitaxel 50 mg m^−2, pazopanib 800 mg, lapatinib 1000 mg, n=3, median (range)
  AUC(0-t): 51.4 µg·h/mL
[3]; oral, day 15 of cycle 1, paclitaxel 80 mg m^−2, pazopanib 400 mg, lapatinib 1000 mg, n=9, geometric mean (95% confidence interval)
  AUC(0-t): 27.1 µg·h/mL
[3]; oral, day 15 of cycle 1, paclitaxel 80 mg m^−2, pazopanib 800 mg, lapatinib 1000 mg, n=1, individual value
  AUC(0-t): 11.6 µg·h/mL
[3]; oral, Lapatinib Cmax, day 15 of cycle 1, paclitaxel 50 mg m^−2, pazopanib 400 mg, lapatinib 1000 mg, n=6, geometric mean (95% confidence interval)
  Cmax: 1270 ng/mL
[3]; [10]
  Increase in AUC0–24 of lapatinib on increasing paclitaxel from 50 to 80 mg m^−2: 1.4 fold
  Increase in Cmax of lapatinib on increasing paclitaxel from 50 to 80 mg m^−2: 1.5 fold

Reference: paper PMC4037836 (British Journal of Cancer, 2014)
